Results: article PMC6783499, “Heteroglycoclusters With Dual Nanomolar Affinities for the Lectins LecA and LecB From Pseudomonas aeruginosa” (Frontiers in Chemistry, 2019)

Key:
LecA = molecular target: T1, LecA (Pseudomonas aeruginosa, UniProt Q05097); experiment: biochemical; type: binding
T1 construct: made in house; host or cells: Escherichia coli BL21(DE3)
Experimental: (§1) The resulting hGCs were tested in solution with lectins by Isothermal Titration Calorimetry (Table 1) and their binding properties were compared with homoclusters 15–20 (Berthet et al., [2013]; Thomas et al., [2015b]) displaying either 4 and 16 βGal or αFuc units attached with an oxime or a triazole linker (Figure 3). […] Experiments were performed in direct injection mode (i.e., ligand in syringe and protein in cell) to minimize aggregation problems.
(§2) All chemical reagents were purchased from Aldrich (Saint Quentin Fallavier, France) or Acros (Noisy-Le-Grand, France). All protected amino acids and Fmoc-Gly-Sasrin® resin was obtained from Advanced ChemTech Europe (Brussels, Belgium). For peptides and glycopeptides, analytical RP-HPLC was performed on Waters system equipped with a Waters 2695 separations module and a Waters 2487 Dual Absorbance UV/Visible Detector. Analysis was carried out at 1.0 mL/min (EC 125/3 nucleosil 300-5 C18) with UV monitoring at 214 nm and 250 nm using a linear A–B gradient (buffer A: 0.09% CF3CO2H in water; buffer B: 0.09% CF3CO2H in 90% acetonitrile). Purifications were carried out at 22.0 mL/min (VP 250/21 nucleosil 100-7 C18) with UV monitoring at 214 nm and 250 nm using a linear A–B gradient. HRMS and ESI-MS and HRMS spectra of peptides and glycopeptides were measured on an Esquire 3000 spectrometer from Bruker. Lectins LecA and LecB were produced in recombinant form in Escherichia coli BL21(DE3) as described previously (Mitchell et al., [2005]; Blanchard et al., [2008]).
Other compounds were assayed with a VP-ITC isothermal titration calorimeter (Microcal). The experiments were carried out at 25°C. All glycocompounds and lectins LecB and LecA were dissolved in the same buffer composed of 20 mM Tris with 100 mM NaCl and 0.1 mM CaCl2 at pH 7.5. For PEAQ-ITC, the lectins were placed in the microcalorimeter cell (200 μL) at concentrations varying from 35 to 70 μM. […] For VP-ITC, the microcalorimeter cell (1.447 mL) contained the lectins with concentrations between 30 and 100 μM. […] The experimental data were fitted to a theoretical titration curve using the Microcal PEAQ-ITC analysis software, with ΔH (enthalpy change), Ka (association constant), and N (number of binding sites per monomer) as adjustable parameters. Dissociation constant (Kd), free energy change (ΔG), and entropy contributions (TΔS) were derived from the previous ones. Two or three independent titrations were performed for each ligand tested.

LecB = molecular target: T2, LecB (Pseudomonas aeruginosa, UniProt Q9HYN5); experiment: biochemical; type: binding
T2 construct: made in house; host or cells: Escherichia coli BL21(DE3)
T2 sequence (Q9HYN5 entry or part of it): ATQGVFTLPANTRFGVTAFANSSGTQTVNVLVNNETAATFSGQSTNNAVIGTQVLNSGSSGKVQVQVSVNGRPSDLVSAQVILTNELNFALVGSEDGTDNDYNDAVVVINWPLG
Experimental: as §1, §2
Other compounds were assayed with a VP-ITC isothermal titration calorimeter (Microcal). The experiments were carried out at 25°C. All glycocompounds and lectins LecB and LecA were dissolved in the same buffer composed of 20 mM Tris with 100 mM NaCl and 0.1 mM CaCl2 at pH 7.5. For PEAQ-ITC, the lectins were placed in the microcalorimeter cell (200 μL) at concentrations varying from 35 to 70 μM. […] For VP-ITC, the microcalorimeter cell (1.447 mL) contained the lectins with concentrations between 30 and 100 μM. A total of 30 injections of 10 μL were performed intervals of 5 min while stirring at 310 rpm with glycoclusters concentrations varying from […]. The experimental data were fitted to a theoretical titration curve using the Microcal PEAQ-ITC analysis software, with ΔH (enthalpy change), Ka (association constant), and N (number of binding sites per monomer) as adjustable parameters. Dissociation constant (Kd), free energy change (ΔG), and entropy contributions (TΔS) were derived from the previous ones. Two or three independent titrations were performed for each ligand tested.

[1] = LecA, ITC, 25°C, per mole of glycocluster
[2] = ITC, 25°C, per mole of glycocluster

T1 sequence (Q05097 whole entry): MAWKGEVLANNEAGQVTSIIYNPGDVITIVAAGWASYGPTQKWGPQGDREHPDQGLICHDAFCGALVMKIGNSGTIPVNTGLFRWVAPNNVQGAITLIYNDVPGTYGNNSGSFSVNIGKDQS

For `C[C@@H]1NC(=O)[C@H](CCCCNC(=O)/C=N/O[C@@H]2O[C@H](CO)[C@H](O)[C@H](O)[C@H]2O)NC(=O)CNC(=O)[C@@H]2CCCN2C(=O)[C@H](CCCCNC(=O)/C=N/O[C@@H]2O[C@H](CO)[C@H](O)[C@H](O)[C@H]2O)NC(=O)[C@H](CCCCNC(=O)CO/N=C/C(=O)NCCCC[C@@H]2NC(=O)CNC(=O)[C@@H]3CCCN3C(=O)[C@H](CCCCNC(=O)/C=N/OCC(=O)NCCCC[C@@H]3NC(=O)[C@H](CCCCNC(=O)/C=N/O[C@@H]4O[C@H](CO)[C@H](O)[C@H](O)[C@H]4O)NC(=O)CNC(=O)[C@@H]4CCCN4C(=O)[C@H](CCCCNC(=O)/C=N/O[C@@H]4O[C@H](CO)[C@H](O)[C@H](O)[C@H]4O)NC(=O)[C@H](C)NC(=O)[C@H](CCCCNC(=O)/C=N/O[C@@H]4O[C@H](CO)[C@H](O)[C@H](O)[C@H]4O)NC(=O)CNC(=O)[C@@H]4CCCN4C(=O)[C@H](CCCCNC(=O)/C=N/O[C@@H]4O[C@H](CO)[C@H](O)[C@H](O)[C@H]4O)NC3=O)NC(=O)[C@H](CCCCN)NC(=O)[C@H](CCCCNC(=O)CO/N=C/C(=O)NCCCC[C@@H]3NC(=O)[C@H](CCCCn4cc(CO[C@@H]5O[C@@H](C)[C@@H](O)[C@@H](O)[C@@H]5O)nn4)NC(=O)CNC(=O)[C@@H]4CCCN4C(=O)[C@H](CCCCn4cc(CO[C@@H]5O[C@@H](C)[C@@H](O)[C@@H](O)[C@@H]5O)nn4)NC(=O)[C@H](C)NC(=O)[C@H](CCCCn4cc(CO[C@@H]5O[C@@H](C)[C@@H](O)[C@@H](O)[C@@H]5O)nn4)NC(=O)CNC(=O)[C@@H]4CCCN4C(=O)[C@H](CCCCn4cc(CO[C@@H]5O[C@@H](C)[C@@H](O)[C@@H](O)[C@@H]5O)nn4)NC3=O)NC(=O)CNC(=O)[C@@H]3CCCN3C(=O)[C@H](CCCCNC(=O)CO/N=C/C(=O)NCCCC[C@@H]3NC(=O)[C@H](CCCCn4cc(CO[C@@H]5O[C@@H](C)[C@@H](O)[C@@H](O)[C@@H]5O)nn4)NC(=O)CNC(=O)[C@@H]4CCCN4C(=O)[C@H](CCCCn4cc(CO[C@@H]5O[C@@H](C)[C@@H](O)[C@@H](O)[C@@H]5O)nn4)NC(=O)[C@H](C)NC(=O)[C@H](CCCCn4cc(CO[C@@H]5O[C@@H](C)[C@@H](O)[C@@H](O)[C@@H]5O)nn4)NC(=O)CNC(=O)[C@@H]4CCCN4C(=O)[C@H](CCCCn4cc(CO[C@@H]5O[C@@H](C)[C@@H](O)[C@@H](O)[C@@H]5O)nn4)NC3=O)NC(=O)[C@H](C)NC2=O)NC(=O)[C@H](CCCCNC(=O)/C=N/O[C@@H]2O[C@H](CO)[C@H](O)[C@H](O)[C@H]2O)NC(=O)CNC(=O)[C@@H]2CCCN2C(=O)[C@H](CCCCNC(=O)/C=N/O[C@@H]2O[C@H](CO)[C@H](O)[C@H](O)[C@H]2O)NC1=O` [Compound 13], the Kd (LecA) was 35 ± 0.1 nM, the “–ΔH (binding enthalpy)” value (LecA; LecA, ITC) was 51.6 to 58.1 kcal/mol and the “n (stoichiometry, glycocluster molecules per lectin monomer)” value (LecA; LecA, ITC, 25°C, pH 7.5) was 0.16. For the same compound, the “–ΔG” value (LecA; [1]) was 10.2 kcal/mol, the “–ΔH” value (LecA; [1]) was 51.6 ± 0.72 kcal/mol and the “−TΔS” value (LecA; [1]) was 41.49 kcal/mol. The “binding to LecA in words” value (LecA; LecA, abstract) was “maintain their binding potency”, the “α (relative potency compared to the monovalent compound)” value (LecA; LecA, relative to βGal-OMe) was 4,286 and the “β (relative potency per sugar unit)” value (LecA; LecA, relative to βGal-OMe) was 536. The “n (stoichiometry, glycocluster molecules per lectin monomer)” value (LecB; ITC, 25°C, pH 7.5) was 0.10, the “–ΔG” value (LecB; [2]) was 9.44 kcal/mol and the “–ΔH” value (LecB; [2]) was 43.71 ± 1.9 kcal/mol. The “−TΔS” value (LecB; [2]) was 34.25 kcal/mol, the Kd (LecB; Kd, ITC, 25°C, 20 mM Tris, 100 mM NaCl, 0.1 mM CaCl2, pH 7.5, ligand in syringe) was 118 ± 15 nM and the “binding to LecB in words” value (LecB; abstract) was “maintain their binding potency”. The “α (relative potency compared to the monovalent compound)” value (LecB; relative to αFuc-OMe) was 3.6 and the “β (relative potency per sugar unit)” value (LecB; relative to αFuc-OMe) was 0.5.
